Assay results published in ChEMBL document CHEMBL1201862, “PubChem BioAssay data set” (2004).
Calls of active or inactive are those of the source.

Experiments:
[1] = biological target: Potassium voltage-gated channel subfamily KQT member 2 (Rattus norvegicus, UniProt O88943, W236L); assay: KCNQ2 channel potentiators, dose response, mechanism study for KCNQ2 potentiator project, cell-based, automated electrophysiology (AID 2603); format: functional
cells [2] = format: functional
[3] = cytotoxicity toward NIH3T3 fibroblasts, dose response, counter-screen, cell-based, ATP luminescence, mouse fibroblasts (AID 2010); format: functional;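 note: cells exposed to compound for about 90 hours before reading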
cells [4] = assay: cells
[5] = inhibitors of intracellular T. cruzi replication, confirmation, NIH3T3 host cells, beta-gal luminescence (AID 2044); format: functional, cell-based;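 note: intracellular parasites grown in NIH/3T3 mouse fibroblasts as host cells; luminescent beta-galactosidase reporter signal from transgenic T. cruzi replicating inside host cells; inhibitors lower the luminescence signal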
[6] = biological target: T1, Carboxy-terminal domain RNA polymerase II polypeptide A small phosphatase 1 (Homo sapiens, UniProt Q9GZU7); assay: inhibitors of CTDSP1, concentration-response testing, biochemical assay, absorbance-based, actives from ultra-high-throughput screening (AID 540297); format: functional
T1 sequence (Q9GZU7 whole entry): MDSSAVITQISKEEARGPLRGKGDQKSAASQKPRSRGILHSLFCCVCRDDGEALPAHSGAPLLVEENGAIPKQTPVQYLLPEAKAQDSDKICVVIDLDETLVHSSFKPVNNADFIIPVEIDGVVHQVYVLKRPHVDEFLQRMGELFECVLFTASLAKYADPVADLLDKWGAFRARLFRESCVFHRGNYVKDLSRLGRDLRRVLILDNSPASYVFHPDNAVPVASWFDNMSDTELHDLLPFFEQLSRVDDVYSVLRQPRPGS

Bcl-2-like protein 1 = Bcl-2-like protein 1 (Homo sapiens, UniProt Q07817); assay: BCL-XL inhibitors, dose response, selectivity assay for MCL1 inhibitor project, biochemical, fluorescence polarization, 1536-well (AID 2218)
Caspase-7 = Caspase-7 (Homo sapiens, UniProt P55210); assay: human caspase-7 inhibitors, dose response, selectivity assay for caspase-6 inhibitor project, biochemical, DEVD-R110 fluorescence, cherry-pick (AID 743295)
Caspase-6 = biological target: T2, Caspase-6 (Homo sapiens, UniProt P55212); assay: human caspase-6 inhibitors, dose response, biochemical, VEID-R110 fluorescence, cherry-pick (AID 720632)
T2 sequence (P55212 whole entry): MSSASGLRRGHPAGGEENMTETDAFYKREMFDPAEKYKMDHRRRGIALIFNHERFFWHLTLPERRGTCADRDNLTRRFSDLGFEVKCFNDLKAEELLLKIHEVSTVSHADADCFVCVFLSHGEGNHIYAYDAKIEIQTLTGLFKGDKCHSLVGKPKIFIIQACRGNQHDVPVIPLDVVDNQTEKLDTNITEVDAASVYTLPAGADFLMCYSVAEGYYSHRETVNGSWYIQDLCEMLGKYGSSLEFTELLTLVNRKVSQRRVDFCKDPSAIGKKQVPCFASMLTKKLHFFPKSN

Caspase-8 = Caspase-8 (Homo sapiens, UniProt Q14790); assay: caspase-8 inhibition counter-screen, dose response, selectivity assay for caspase-6 inhibitor project, biochemical, Z-IETD-R110 fluorescence, cherry-picked samples (AID 743294)
[7] = biological target: T3, Induced myeloid leukemia cell differentiation protein Mcl-1 (Homo sapiens, UniProt Q07820); assay: MCL1-BIM BH3 interaction inhibitors, dose response, biochemical, fluorescence polarization, BIM-BH3 peptide, 1536-well (AID 2217)
Oxytocin receptor = Oxytocin receptor (Homo sapiens, UniProt P30559); assay: Fluorescence-based cell-based high throughput dose response assay for potentiators of Oxytocin Receptor (OXTR). [Related pubchem assays: 434985 (Confirmation screen (OXTR potentiators in triplicate)), 2481 (Summary (OXTR potentiators)), 2445 (Primary screen (OXTR potentiators in singlicate))]; format: functional
[8] = biological target: Glyceraldehyde-3-phosphate dehydrogenase (Homo sapiens, UniProt P04406)
Bcl-2-related protein A1 [9] = biological target: T4, Bcl-2-related protein A1 (Mus musculus, UniProt Q07440); assay: Bfl-1 inhibitors blocking BH3 peptide binding, confirmation, biochemical, TR-FRET, mouse Bfl-1 (AID 621);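 note: TR-FRET binding of GST-Bfl-1 to FITC-labelled Bid peptide via terbium antibody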
T4 sequence (Q07440 whole entry): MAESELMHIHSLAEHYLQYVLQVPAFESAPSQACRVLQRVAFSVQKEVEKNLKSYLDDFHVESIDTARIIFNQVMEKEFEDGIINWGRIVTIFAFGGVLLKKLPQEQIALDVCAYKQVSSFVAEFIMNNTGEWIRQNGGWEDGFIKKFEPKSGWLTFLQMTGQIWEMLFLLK

Bcl-2-related protein A1 [10] = biological target: T4, Bcl-2-related protein A1; assay: Bfl-1 binding inhibitors, SAR follow-up, biochemical, fluorescence polarization (AID 1070)
[11] = biological target: Protein-tyrosine kinase 2-beta (Homo sapiens, UniProt Q14289);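 note: potency of inhibitors of PYK2 kinase phosphorylation of poly-GT substrate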
[12] = biological target: T5, E3 ubiquitin-protein ligase XIAP (Homo sapiens, UniProt P98170); assay: Counter Screen using XIAP-Bir3 for Chemical Antagonists of Bir1/2 domains of IAP-family anti-apoptotic proteins. [Related pubchem assays (depositor defined):AID1018, AID1449, AID1514, AID1638, AID1749, AID1750, AID488957, AID488963]
[13] = biological target: T5, E3 ubiquitin-protein ligase XIAP; assay: XIAP antagonists, biochemical, IAP family, fluorescence polarization (AID 1018); format: functional
[14] = biological target: Photoreceptor-specific nuclear receptor (Homo sapiens, UniProt Q9Y5X4); assay: NR2E3 inverse agonists, dose response, biochemical, TR-FRET (AID 463256); format: functional
[15] = biological target: T6, Small ubiquitin-related modifier 1 (Homo sapiens, UniProt P63165); assay: inhibitors of SUMO1 peptide binding, dose response, biochemical, fluorescence polarization, uHTS hits (AID 624382); format: functional; details: read-out: IC50_Mean
[16] = biological target: Peroxisome proliferator-activated receptor gamma/Nuclear receptor corepressor 2 (Homo sapiens, UniProt P37231+Q9Y618); assay: Counterscreen for NR2E3 inverse agonists: TR-FRET-based biochemical high throughput dose response assay to identify inverse agonists of the interaction between peroxisome proliferator-activated receptor gamma (PPARg) and nuclear receptor co-repressor 2 (NCOR2).; format: functional
[17] = biological target: T6, Small ubiquitin-related modifier 1; assay: inhibitors of SUMO1 partner interactions, dose response, biochemical, FRET (AID 624383); format: functional; details: read-out: IC50_Mean
[18] = cytotoxicity in HPDE-C7 cells, cell-based, fluorescence, HTS (AID 430); format: functional; details: Homo sapiens
[19] = cytotoxicity in KRAS-transformed pancreatic duct cells, primary screen, cell-based, fluorescence, HTS (AID 431); format: functional; details: Homo sapiens;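 note: cell line used: HPDE-C7K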
[20] = Luminescence Cell-Based Dose Retest to Confirm Inhibitors of Cancer Stem Cells. [Related pubchem assays (depositor defined):AID2717, AID2721]; format: functional; details: Homo sapiens
Vero [21] = assay: West Nile virus antiviral activity, cell-based, CPE readout (AID 1621); format: functional; details: Chlorocebus sabaeus
Vero [22] = assay: host cell cytotoxicity of antiviral hits, dose response, cytotoxicity control for West Nile virus antiviral project, secondary assay (AID 1650); format: functional; details: Chlorocebus sabaeus
[23] = biological target: T3, Induced myeloid leukemia cell differentiation protein Mcl-1; format: functional
[24] = Luminescent dose response cell-based high throughput screening assay for inhibitors of the Janus kinase 2 mutant JAK2V617F. [Related pubchem assays: 1446 (Primary screen.), 1521 (Confirmation assay.), 1486 (Counter screen.)]; format: functional
[25] = enhancers of respiration in Yfh1-depleted yeast, dose response, Friedreich's ataxia, plus single-dose screen (AID 1465); format: functional;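 note: yeast depleted of Yfh1p frataxin homolog grown on glycerol needing respiration; WST-1 tetrazolium dye reduction as measure of cellular dehydrogenase metabolic activity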
[26] = biological target: T7, Heat shock factor protein 1 (Mus musculus, UniProt P38532); assay: HSF1 potentiators in luciferase reporter cells, confirmation, cell-based, NIH3T3, luminescence, dose retest (AID 435004); format: functional;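 note: stress induced by proteasome inhibitor MG132 added 30 min after compound; luciferase reporter driven by HSF1 response element in NIH3T3 cells; actives raise luminescence as potentiators of the MG132 stress response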
T7 sequence (P38532 whole entry): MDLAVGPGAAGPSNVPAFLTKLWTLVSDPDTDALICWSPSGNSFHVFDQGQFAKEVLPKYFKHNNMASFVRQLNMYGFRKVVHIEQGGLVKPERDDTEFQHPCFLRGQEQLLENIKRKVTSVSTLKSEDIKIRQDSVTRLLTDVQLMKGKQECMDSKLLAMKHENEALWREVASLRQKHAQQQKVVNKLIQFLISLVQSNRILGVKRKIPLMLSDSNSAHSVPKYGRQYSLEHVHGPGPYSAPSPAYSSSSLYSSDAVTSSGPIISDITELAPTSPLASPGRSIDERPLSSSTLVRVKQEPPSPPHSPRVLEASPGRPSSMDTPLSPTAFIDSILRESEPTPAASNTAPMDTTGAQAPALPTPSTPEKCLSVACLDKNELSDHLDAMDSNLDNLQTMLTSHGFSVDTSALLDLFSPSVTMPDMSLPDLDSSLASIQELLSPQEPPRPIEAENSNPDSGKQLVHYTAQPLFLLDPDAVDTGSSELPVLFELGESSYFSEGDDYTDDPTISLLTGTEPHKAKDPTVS

[27] = biological target: T8, Microphthalmia-associated transcription factor (Homo sapiens, UniProt O75030); assay: TRPM1 promoter luciferase signal decrease, dose response, MITF inhibitor project, cell-based, SK-MEL-5, cherry-picked, set 3 (AID 493073); format: functional
T8 sequence (O75030 whole entry): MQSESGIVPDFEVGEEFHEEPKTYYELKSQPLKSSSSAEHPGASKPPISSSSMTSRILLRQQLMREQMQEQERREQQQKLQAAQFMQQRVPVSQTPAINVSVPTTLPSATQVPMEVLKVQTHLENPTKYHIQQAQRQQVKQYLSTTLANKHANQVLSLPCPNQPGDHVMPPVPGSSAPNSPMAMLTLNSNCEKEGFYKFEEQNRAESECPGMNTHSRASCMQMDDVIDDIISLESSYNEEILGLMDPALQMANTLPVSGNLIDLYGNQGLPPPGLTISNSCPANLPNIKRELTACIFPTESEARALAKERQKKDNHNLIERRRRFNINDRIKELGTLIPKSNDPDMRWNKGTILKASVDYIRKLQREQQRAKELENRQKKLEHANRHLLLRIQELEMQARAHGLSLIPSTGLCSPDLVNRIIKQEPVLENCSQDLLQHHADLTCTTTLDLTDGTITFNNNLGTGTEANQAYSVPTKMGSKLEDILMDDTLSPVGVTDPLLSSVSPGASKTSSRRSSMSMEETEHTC

[28] = Luminescence Cell-Based Dose Response to Identify Activators of Luciferase Translation or Activity in H4-C Neuroglioblastoma Cells. [Related pubchem assays: 1829 (Project Summary), 1814 (Primary HTS)]; format: functional
[29] = Luminescence Cell-Based Dose Response to Identify Activators of 5'UTR Stem-Loop Driven Prion Protein mRNA Translation in H4-C Neuroglioblastoma Cells. [Related pubchem assays: 1829 (Project Summary), 1814 (Primary HTS)]; format: functional
[30] = Luminescence Cell-Based Dose Confirmation to Identify Activators of 5'UTR Stem-Loop Driven Alpha-Synuclein mRNA Translation in H4 Neuroglioblastoma Cells. [Related pubchem assays: 1829 (Project Summary), 1814 (Primary HTS)]; format: functional
H4 = assay: Luminescence Cell-Based Dose Response HTS to Identify Activators of 5'UTR Stem-Loop Driven Prion Protein mRNA Translation in H4 Neuroglioblastoma Cells. [Related pubchem assays: 1829 (Project Summary), 1814 (Primary HTS)]; format: functional; details: Homo sapiens
[31] = Luminescence Cell-Based Dose Response HTS to Identify Activators of Luciferase Translation or Activity in H4 […] Cells. [Related pubchem assays: 1829 (Project Summary), 1814 (Primary HTS)]; format: functional
[32] = biological target: Sphingosine 1-phosphate receptor 2 (Homo sapiens, UniProt O95136); assay: Dose Response Cell Based Assay for Agonists of the S1P2 Receptor of Purchased Analogues. [Related pubchem assays: 729, 843, 854, 736 ]; format: functional
Sequence of Sphingosine 1-phosphate receptor 2 (O95136 whole entry): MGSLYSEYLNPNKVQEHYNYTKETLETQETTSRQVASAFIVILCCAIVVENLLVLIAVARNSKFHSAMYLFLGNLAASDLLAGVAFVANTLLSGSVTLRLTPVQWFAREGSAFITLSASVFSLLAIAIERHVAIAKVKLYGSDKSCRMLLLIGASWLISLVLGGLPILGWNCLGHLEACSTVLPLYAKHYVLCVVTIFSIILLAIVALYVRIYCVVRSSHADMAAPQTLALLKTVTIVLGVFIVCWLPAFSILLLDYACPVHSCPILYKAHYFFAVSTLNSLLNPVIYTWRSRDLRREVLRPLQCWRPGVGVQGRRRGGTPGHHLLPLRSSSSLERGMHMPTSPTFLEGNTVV

T6 sequence (P63165 whole entry): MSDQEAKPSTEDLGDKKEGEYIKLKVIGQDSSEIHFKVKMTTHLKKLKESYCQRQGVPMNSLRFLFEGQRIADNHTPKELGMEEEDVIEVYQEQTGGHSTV
T5 sequence (P98170 whole entry): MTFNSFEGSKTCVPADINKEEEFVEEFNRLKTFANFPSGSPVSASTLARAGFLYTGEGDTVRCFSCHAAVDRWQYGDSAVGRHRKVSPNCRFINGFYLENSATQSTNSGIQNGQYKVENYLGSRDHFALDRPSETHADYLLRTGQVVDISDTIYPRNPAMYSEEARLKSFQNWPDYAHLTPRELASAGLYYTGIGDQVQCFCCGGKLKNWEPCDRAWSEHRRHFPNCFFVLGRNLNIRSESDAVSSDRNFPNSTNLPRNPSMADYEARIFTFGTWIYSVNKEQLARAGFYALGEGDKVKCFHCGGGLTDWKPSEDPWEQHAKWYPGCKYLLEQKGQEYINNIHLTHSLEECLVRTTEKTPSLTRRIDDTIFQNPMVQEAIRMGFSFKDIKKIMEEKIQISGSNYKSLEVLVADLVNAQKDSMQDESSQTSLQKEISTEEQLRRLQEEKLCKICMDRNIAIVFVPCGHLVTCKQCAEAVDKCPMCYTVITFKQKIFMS
T3 sequence (Q07820 whole entry): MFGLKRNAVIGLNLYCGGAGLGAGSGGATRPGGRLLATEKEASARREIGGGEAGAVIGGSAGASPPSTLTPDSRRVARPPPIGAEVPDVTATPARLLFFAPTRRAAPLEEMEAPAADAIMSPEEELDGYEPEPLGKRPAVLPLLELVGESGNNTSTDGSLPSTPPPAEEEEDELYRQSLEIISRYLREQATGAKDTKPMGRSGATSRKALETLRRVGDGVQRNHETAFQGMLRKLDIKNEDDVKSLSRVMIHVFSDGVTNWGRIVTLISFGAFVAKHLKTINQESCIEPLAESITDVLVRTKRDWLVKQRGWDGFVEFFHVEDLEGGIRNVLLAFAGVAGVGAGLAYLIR
Sequence of Oxytocin receptor (P30559 whole entry): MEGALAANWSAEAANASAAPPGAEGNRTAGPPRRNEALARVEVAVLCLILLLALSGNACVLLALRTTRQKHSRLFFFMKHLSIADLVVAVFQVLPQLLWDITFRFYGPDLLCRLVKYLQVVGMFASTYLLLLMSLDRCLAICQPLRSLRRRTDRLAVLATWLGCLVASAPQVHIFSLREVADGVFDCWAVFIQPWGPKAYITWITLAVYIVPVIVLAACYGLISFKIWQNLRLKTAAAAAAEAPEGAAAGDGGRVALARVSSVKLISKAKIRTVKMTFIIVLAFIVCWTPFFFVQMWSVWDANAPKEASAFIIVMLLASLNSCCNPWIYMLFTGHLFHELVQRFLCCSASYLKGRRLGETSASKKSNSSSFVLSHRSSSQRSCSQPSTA
Sequence of Caspase-7 (P55210 24-198 limits assumed): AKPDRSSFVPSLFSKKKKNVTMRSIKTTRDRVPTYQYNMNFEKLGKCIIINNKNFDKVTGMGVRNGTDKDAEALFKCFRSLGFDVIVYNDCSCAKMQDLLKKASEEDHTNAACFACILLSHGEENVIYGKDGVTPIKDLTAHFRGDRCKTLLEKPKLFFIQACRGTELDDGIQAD
Sequence of Caspase-7 (P55210 207-303 limits assumed): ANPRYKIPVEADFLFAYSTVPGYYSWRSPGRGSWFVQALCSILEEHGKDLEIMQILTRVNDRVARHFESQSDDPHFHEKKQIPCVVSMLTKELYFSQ
Sequence of Bcl-2-like protein 1 (Q07817 whole entry): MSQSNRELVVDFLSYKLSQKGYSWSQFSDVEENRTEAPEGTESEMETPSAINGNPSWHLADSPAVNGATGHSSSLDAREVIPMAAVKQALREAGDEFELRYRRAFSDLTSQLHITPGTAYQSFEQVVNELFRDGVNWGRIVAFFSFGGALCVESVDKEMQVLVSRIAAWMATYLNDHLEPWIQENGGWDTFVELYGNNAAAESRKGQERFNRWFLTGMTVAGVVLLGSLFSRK
Sequence of Photoreceptor-specific nuclear receptor (Q9Y5X4 whole entry): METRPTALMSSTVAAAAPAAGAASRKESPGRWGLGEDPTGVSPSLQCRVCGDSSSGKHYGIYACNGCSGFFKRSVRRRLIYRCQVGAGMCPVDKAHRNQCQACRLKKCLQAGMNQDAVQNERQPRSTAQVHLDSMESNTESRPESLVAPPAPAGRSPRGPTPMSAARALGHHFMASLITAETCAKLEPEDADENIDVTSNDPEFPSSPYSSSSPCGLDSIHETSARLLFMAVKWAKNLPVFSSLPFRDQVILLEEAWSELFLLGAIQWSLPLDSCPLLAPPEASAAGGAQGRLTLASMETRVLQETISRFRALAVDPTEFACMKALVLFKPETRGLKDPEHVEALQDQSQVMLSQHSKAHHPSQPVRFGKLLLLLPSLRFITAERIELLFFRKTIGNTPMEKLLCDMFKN
Sequence of Glyceraldehyde-3-phosphate dehydrogenase (P04406 whole entry): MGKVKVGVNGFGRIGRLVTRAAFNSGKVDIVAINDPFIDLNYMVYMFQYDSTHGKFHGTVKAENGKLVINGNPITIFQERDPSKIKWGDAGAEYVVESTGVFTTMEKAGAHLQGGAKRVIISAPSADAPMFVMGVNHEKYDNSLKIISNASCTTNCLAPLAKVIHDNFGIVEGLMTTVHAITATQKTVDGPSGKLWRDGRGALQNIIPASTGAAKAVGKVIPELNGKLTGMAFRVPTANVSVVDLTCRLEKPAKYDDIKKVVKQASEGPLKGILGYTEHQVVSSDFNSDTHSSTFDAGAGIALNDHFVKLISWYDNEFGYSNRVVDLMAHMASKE
Sequence of Potassium voltage-gated channel subfamily KQT member 2 (O88943 whole entry W236L): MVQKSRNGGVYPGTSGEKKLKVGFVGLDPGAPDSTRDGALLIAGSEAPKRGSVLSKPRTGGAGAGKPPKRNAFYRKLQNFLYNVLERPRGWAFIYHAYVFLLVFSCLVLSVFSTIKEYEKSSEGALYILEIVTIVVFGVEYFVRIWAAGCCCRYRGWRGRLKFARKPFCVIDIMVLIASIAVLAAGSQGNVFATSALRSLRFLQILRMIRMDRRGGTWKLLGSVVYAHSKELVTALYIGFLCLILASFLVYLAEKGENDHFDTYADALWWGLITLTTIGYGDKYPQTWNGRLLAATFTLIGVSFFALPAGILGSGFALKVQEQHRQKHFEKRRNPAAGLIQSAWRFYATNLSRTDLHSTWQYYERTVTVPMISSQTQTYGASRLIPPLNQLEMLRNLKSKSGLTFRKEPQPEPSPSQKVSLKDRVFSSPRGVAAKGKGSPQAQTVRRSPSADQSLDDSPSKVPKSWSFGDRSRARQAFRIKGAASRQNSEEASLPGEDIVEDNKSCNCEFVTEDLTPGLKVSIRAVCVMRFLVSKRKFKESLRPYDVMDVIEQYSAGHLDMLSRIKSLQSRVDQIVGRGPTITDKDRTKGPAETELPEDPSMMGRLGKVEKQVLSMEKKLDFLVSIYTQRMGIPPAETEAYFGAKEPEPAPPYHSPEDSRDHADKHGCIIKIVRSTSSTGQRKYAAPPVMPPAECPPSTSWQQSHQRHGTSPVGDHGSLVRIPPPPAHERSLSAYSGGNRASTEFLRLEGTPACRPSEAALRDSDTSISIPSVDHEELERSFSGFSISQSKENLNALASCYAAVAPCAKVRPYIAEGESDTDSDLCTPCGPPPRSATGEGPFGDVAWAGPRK
Sequence of Protein-tyrosine kinase 2-beta (Q14289 whole entry): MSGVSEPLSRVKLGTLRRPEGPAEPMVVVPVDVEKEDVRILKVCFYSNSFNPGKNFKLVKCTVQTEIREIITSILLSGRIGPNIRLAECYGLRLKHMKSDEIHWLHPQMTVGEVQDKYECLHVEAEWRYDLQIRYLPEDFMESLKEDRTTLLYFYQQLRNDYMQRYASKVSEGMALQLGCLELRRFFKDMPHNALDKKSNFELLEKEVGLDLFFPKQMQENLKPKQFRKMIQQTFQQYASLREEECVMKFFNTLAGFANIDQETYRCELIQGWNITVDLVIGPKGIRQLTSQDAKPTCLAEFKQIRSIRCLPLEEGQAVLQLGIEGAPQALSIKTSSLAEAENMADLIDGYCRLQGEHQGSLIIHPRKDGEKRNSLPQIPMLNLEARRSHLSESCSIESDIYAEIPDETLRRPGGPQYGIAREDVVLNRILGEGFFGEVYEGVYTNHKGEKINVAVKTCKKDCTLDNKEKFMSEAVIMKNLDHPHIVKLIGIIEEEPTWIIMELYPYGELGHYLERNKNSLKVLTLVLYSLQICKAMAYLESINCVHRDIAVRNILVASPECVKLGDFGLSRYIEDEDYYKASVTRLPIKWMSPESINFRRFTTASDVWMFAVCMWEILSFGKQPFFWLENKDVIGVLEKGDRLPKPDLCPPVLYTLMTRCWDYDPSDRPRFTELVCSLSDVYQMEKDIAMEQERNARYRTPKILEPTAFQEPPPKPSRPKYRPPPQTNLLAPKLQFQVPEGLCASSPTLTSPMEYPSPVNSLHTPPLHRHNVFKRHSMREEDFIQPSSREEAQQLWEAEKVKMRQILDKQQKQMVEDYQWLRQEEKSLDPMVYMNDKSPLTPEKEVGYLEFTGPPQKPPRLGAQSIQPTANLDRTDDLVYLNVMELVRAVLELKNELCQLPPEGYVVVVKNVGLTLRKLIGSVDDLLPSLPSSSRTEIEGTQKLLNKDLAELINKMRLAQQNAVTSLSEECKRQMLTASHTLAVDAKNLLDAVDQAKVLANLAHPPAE

Cc1ccc(NC(=O)C2CC2c2ccccc2)c([N+](=O)[O-])c1 (stereo not drawn)
EC50 [1]: 11.4 µM (active)

CN(C)CCNc1c2c(c(C#N)c3nc4ccccc4n13)CCCC2
IC50 (cells [2]): 20.9 µM (active) | EC50 [3]: > 60 µM (not active) | EC50 (cells [4]): 0.11 µM (active) | EC50 [5]: < 0.1 µM (active)

Cc1cccc(NC(=O)CNC(=O)c2cccc(-n3cccc3)c2)c1C
IC50 [6]: 3.97 µM (active) | IC50 (Bcl-2-like protein 1): > 109 µM (not active) | AC50 (Caspase-7): > 70 µM (inactive) | AC50 (Caspase-6): 1.55 µM (active) | AC50 (Caspase-8): > 70 µM (inactive) | IC50 [7]: 8.77 µM (active)

Sc1nnc(-c2ccncc2)n1/N=C/c1cn(-c2ccccc2)nc1-c1ccccc1
EC50 (Oxytocin receptor): > 29.9 µM (not active)

CN1CCN(C2=C(Cl)C(=O)N(c3cc(Cl)cc(Cl)c3)C2=O)CC1
IC50 [8]: > 100 µM (not active) | IC50 (Bcl-2-related protein A1 [9]): 1.66 µM (active) | IC50 (Bcl-2-related protein A1 [10]): 2.44 µM (active)

O=C1NCCc2c1[nH]c1c(Cl)ccc(Cl)c21
IC50 [11]: 10.2 µM (not active)

COc1ccc(NC(=O)/C(=C/c2cccnc2)NC(=O)c2cccs2)cc1
IC50 [12]: > 100 µM (inactive) | IC50 [13]: > 100 µM (not active)

COc1cccc(-c2csc3nnc(SCC(=O)c4ccc(NC(C)=O)cc4)n23)c1
IC50 [14]: 4.9 µM (active) | IC50 [15]: > 66.6 µM (inactive) | IC50 [16]: 6.73 µM (active) | IC50 [17]: 10.6 µM (active)

O=c1c2c3c(sc2n2cnnc2n1Cc1ccccc1)CN(Cc1ccccc1)CC3
EC50 [18]: 12.9 µM (active) | EC50 [19]: 11.6 µM (active)

CN1CCN(CCCN2c3ccccc3Sc3ccc(Cl)cc32)CC1 [PROCHLORPERAZINE]
AC50 [20]: 4.93 µM (active) | IC50 (Vero [21]): 19.1 µM (active) | CC50 (Vero [22]): 29.4 µM (active) | IC50 [23]: 3.77 µM (active)

c1ccc2c(c1)CSc1sccc1C2=C1CCNCC1
IC50 [24]: 1.71 µM (active)

CC1=C(C#N)C(=O)N(CCO)C(=O)/C1=N/Nc1ccc2c(c1)COC2=O
EC50 [25]: > 100 µM (active) | EC50 [26]: 9.38 µM (active) | AC50 [27]: 9.69 µM (active)

CS(=O)(=O)c1nc(S(=O)(=O)c2ccc(Cl)cc2)c(N2CCC3(CC2)OCCO3)s1
EC50 [28]: > 12 µM (not active) | EC50 [29]: > 12 µM (not active) | EC50 [30]: 0.71 µM (active) | EC50 (H4): > 120 µM (not active) | EC50 [31]: < 0.1 µM (active)

COCCNC(=O)CN(C)CC(=O)c1cc(C)n(Cc2ccccc2)c1C
EC50 [32]: > 30 µM (not active)
